Bridge positions count the residues as written; N and C are the ends. Peptide text beside a SMILES is read from it.
Assays:
[1] = target: Sodium channel protein type 9 subunit alpha (Homo sapiens, UniProt Q15858); experiment: Inhibition of human NaV1.7 at -140 mV holding potential by whole-cell patch clamp assay
[2] = target: Sodium channel protein type 5 subunit alpha (Homo sapiens, UniProt Q14524); experiment: Inhibition of human NaV1.5 at -140 mV holding potential by whole-cell patch clamp assay
Sequence of Sodium channel protein type 5 subunit alpha (Q14524 whole entry): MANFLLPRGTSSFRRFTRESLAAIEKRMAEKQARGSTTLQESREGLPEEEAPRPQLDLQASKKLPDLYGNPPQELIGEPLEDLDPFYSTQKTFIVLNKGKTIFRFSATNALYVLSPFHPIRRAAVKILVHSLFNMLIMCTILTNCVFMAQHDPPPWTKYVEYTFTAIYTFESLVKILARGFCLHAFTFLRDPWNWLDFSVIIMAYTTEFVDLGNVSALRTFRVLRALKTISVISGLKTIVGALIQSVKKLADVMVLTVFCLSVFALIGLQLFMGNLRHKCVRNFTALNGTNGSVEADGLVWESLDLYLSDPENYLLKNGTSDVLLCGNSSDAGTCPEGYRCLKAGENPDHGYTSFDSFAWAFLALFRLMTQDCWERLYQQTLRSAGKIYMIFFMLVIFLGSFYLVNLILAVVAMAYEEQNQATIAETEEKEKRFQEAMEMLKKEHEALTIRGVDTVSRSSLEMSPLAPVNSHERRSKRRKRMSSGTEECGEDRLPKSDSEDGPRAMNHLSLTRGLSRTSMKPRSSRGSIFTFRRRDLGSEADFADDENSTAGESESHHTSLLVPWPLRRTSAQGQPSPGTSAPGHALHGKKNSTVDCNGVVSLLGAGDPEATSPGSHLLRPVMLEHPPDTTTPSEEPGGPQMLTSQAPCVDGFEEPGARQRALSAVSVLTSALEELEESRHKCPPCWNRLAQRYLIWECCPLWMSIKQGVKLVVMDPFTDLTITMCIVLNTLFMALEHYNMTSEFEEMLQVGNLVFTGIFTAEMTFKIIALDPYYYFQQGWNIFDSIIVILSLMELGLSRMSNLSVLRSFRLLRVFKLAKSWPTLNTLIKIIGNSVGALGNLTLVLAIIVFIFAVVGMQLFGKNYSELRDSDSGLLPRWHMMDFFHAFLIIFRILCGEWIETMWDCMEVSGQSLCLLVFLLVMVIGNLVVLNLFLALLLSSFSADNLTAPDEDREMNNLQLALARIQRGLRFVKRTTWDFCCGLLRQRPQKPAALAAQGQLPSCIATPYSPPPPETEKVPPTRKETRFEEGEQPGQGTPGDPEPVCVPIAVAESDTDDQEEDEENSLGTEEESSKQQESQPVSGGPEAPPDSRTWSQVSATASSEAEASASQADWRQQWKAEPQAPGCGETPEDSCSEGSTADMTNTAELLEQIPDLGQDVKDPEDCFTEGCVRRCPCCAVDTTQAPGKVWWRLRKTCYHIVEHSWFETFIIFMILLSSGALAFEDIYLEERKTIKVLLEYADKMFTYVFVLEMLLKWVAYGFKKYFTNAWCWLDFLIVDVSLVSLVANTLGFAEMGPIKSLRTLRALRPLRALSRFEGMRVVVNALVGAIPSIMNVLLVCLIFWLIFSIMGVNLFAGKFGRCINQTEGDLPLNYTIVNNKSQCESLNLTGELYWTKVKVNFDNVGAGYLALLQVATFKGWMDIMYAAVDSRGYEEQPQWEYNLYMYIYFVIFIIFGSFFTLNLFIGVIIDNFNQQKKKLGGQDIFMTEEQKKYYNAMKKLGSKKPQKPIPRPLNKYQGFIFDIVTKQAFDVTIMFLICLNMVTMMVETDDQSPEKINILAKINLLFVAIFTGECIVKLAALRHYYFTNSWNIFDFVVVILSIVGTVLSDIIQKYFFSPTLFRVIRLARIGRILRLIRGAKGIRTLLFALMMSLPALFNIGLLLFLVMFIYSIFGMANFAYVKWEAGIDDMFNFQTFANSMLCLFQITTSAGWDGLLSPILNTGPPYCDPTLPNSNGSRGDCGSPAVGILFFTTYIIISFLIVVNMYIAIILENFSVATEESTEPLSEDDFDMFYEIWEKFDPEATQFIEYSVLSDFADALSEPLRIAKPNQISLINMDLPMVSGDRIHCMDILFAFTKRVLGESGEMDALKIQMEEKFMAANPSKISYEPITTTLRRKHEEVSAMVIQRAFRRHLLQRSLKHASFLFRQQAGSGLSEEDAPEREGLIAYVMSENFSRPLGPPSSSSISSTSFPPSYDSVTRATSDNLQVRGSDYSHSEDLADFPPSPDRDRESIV

Sequence of Sodium channel protein type 9 subunit alpha (Q15858 whole entry): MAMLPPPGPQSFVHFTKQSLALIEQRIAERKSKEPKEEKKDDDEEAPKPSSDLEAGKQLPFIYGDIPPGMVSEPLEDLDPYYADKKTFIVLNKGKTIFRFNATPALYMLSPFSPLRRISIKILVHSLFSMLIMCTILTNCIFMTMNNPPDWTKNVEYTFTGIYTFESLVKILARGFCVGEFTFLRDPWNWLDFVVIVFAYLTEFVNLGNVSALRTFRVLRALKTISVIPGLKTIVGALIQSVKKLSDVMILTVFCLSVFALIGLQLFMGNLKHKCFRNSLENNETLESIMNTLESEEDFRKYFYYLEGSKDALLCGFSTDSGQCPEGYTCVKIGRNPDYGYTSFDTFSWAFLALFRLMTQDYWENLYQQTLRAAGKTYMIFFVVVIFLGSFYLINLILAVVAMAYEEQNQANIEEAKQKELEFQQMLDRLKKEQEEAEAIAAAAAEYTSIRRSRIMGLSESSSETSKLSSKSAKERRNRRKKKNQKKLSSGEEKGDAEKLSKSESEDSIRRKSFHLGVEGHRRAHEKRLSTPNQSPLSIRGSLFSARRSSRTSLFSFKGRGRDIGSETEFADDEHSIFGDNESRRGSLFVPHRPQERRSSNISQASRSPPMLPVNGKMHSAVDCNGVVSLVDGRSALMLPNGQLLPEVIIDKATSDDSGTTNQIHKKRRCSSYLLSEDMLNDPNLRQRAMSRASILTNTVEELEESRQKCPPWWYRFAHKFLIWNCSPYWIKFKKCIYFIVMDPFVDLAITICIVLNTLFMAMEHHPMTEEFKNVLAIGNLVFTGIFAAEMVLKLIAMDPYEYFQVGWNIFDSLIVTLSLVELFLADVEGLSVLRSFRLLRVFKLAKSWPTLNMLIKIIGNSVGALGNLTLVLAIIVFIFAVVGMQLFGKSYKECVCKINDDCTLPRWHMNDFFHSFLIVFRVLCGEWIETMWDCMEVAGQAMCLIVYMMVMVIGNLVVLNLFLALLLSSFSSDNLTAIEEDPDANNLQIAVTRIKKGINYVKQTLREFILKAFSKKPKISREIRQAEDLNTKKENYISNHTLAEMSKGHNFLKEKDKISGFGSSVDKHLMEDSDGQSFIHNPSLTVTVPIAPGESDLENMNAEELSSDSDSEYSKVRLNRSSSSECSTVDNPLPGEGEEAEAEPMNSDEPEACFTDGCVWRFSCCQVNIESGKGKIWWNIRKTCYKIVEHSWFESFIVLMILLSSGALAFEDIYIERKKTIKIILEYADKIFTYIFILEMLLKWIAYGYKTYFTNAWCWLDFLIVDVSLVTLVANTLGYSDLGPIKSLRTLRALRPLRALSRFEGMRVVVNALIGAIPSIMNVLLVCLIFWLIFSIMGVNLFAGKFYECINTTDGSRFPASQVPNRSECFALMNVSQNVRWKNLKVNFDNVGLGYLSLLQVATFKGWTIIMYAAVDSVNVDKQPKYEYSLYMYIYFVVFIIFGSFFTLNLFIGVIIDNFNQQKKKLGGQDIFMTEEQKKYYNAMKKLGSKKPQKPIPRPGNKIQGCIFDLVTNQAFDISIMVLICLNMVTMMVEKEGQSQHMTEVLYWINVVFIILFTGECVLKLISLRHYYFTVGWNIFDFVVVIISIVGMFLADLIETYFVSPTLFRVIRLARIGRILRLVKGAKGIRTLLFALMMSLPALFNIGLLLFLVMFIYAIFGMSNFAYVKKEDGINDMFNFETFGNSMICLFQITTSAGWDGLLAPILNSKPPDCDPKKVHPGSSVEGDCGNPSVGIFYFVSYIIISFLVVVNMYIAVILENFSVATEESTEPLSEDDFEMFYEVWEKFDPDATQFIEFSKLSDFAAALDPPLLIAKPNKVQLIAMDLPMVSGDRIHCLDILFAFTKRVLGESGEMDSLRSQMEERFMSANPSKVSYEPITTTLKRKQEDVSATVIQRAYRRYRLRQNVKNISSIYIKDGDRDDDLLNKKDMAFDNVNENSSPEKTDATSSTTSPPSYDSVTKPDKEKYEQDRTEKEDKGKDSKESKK

`CC[C@H](C)[C@@H]1NC(=O)[C@@H]2CSSC[C@@H]3NC(=O)[C@H](C(C)C)NC(=O)[C@H](CC(C)C)NC(=O)[C@H](CC(N)=O)NC(=O)[C@@H]4CCCN4C(=O)[C@H](CCCNC(=N)N)NC(=O)[C@H](CSSC[C@H](NC(=O)[C@@H](N)CC(=O)O)C(=O)N[C@@H](CC(C)C)C(=O)NCC(=O)N[C@@H](Cc4ccccc4)C(=O)N[C@@H](CCSC)C(=O)N[C@@H](CCCNC(=N)N)C(=O)N[C@@H](CCCCN)C(=O)N2)NC(=O)[C@H](CSSC[C@@H](C(=O)N[C@@H](CCCCN)C(=O)N[C@@H](Cc2ccc(O)cc2)C(=O)N[C@H](C(=O)N[C@@H](Cc2ccccc2)C(N)=O)C(C)C)NC(=O)[C@H](Cc2c[nH]c4ccccc24)NC(=O)[C@H](CCCCN)NC(=O)[C@H](Cc2cnc[nH]2)NC(=O)[C@H]([C@@H](C)O)NC(=O)[C@H](CCCNC(=N)N)NC(=O)[C@H](CO)NC3=O)NC(=O)[C@H](CCCCN)NC(=O)[C@H](CC(=O)O)NC(=O)[C@H](C)NC(=O)[C@H](CC(=O)O)NC(=O)[C@@H]2CCCN2C1=O` (H-DCLGFMRKCIPDADKCCRPNLVCSRTHKWCKYVF-NH2; disulfide 2-17, 9-23, 16-30) showed an IC50 [1] of 190 nM and an IC50 [2] greater than 5000 nM.

With `CC[C@H](C)[C@@H]1NC(=O)[C@@H]2CSSC[C@@H]3NC(=O)[C@H](C(C)C)NC(=O)[C@H](CC(C)C)NC(=O)[C@H](CC(N)=O)NC(=O)[C@@H]4CCCN4C(=O)[C@H](CCCNC(=N)N)NC(=O)[C@H](CSSC[C@H](NC(=O)[C@@H](N)CC(=O)O)C(=O)N[C@@H](CC(C)C)C(=O)NCC(=O)N[C@@H](C4CCCCC4)C(=O)N[C@@H](CCSC)C(=O)N[C@@H](CCCNC(=N)N)C(=O)N[C@@H](CCCCN)C(=O)N2)NC(=O)[C@H](CSSC[C@@H](C(=O)N[C@@H](CCCCN)C(=O)N[C@@H](Cc2ccc(O)cc2)C(=O)N[C@H](C(=O)N[C@@H](Cc2ccccc2)C(N)=O)C(C)C)NC(=O)[C@H](Cc2c[nH]c4ccccc24)NC(=O)[C@H](CCCCN)NC(=O)[C@H](Cc2cnc[nH]2)NC(=O)[C@H]([C@@H](C)O)NC(=O)[C@H](CCCNC(=N)N)NC(=O)[C@H](CO)NC3=O)NC(=O)[C@H](CCCCN)NC(=O)[C@H](CC(=O)O)NC(=O)[C@H](CC(N)=O)NC(=O)[C@H](CC(=O)O)NC(=O)[C@@H]2CCCN2C1=O` the IC50 [1] was 6 nM and the IC50 [2] was greater than 10000 nM.

For `CC[C@H](C)[C@@H]1NC(=O)[C@@H]2CSSC[C@@H]3NC(=O)[C@H](C(C)C)NC(=O)[C@H](CC(C)C)NC(=O)[C@H](CC(N)=O)NC(=O)[C@@H]4CCCN4C(=O)[C@H](CCCNC(=N)N)NC(=O)[C@H](CSSC[C@H](NC(=O)[C@@H](N)CC(=O)O)C(=O)N[C@@H](CC(C)C)C(=O)NCC(=O)N[C@@H](Cc4ccccc4)C(=O)N[C@@H](Cc4ccc(O)cc4)C(=O)N[C@@H](CCCNC(=N)N)C(=O)N[C@@H](CCCCN)C(=O)N2)NC(=O)[C@H](CSSC[C@@H](C(=O)N[C@@H](CCCCN)C(=O)N[C@@H](Cc2ccc(O)cc2)C(=O)N[C@H](C(=O)N[C@@H](Cc2ccccc2)C(N)=O)C(C)C)NC(=O)[C@H](Cc2c[nH]c4ccccc24)NC(=O)[C@H](CCCCN)NC(=O)[C@H](Cc2cnc[nH]2)NC(=O)[C@H]([C@@H](C)O)NC(=O)[C@H](CCCNC(=N)N)NC(=O)[C@H](CO)NC3=O)NC(=O)[C@H](CCCCN)NC(=O)[C@H](CC(=O)O)NC(=O)[C@H](CC(N)=O)NC(=O)[C@H](CC(=O)O)NC(=O)[C@@H]2CCCN2C1=O` (H-DCLGFYRKCIPDNDKCCRPNLVCSRTHKWCKYVF-NH2; disulfide 2-17, 9-23, 16-30), the IC50 [1] was 63 nM and the IC50 [2] was greater than 10000 nM.

`CCC[C@@H]1NC(=O)CNC(=O)[C@H](CC(C)C)NC(=O)[C@@H](NC(=O)[C@@H](N)CC(=O)O)CSSC[C@@H]2NC(=O)[C@@H]3CSSC[C@@H](C(=O)N[C@@H](CCCCN)C(=O)N[C@@H](Cc4ccc(O)cc4)C(=O)N[C@H](C(=O)N[C@@H](Cc4ccccc4)C(N)=O)C(C)C)NC(=O)[C@H](Cc4c[nH]c5ccccc45)NC(=O)[C@H](CCCCN)NC(=O)[C@H](Cc4cnc[nH]4)NC(=O)[C@H]([C@@H](C)O)NC(=O)[C@H](CCCNC(=N)N)NC(=O)[C@H](CO)NC(=O)[C@H](CSSC[C@H](NC(=O)[C@H](CCCCN)NC(=O)[C@H](CCCNC(=N)N)NC(=O)[C@H](CCSC)NC1=O)C(=O)N[C@@H]([C@@H](C)CC)C(=O)N1CCC[C@H]1C(=O)N[C@@H](CC(=O)O)C(=O)N[C@@H](CC(N)=O)C(=O)N[C@@H](CC(=O)O)C(=O)N[C@@H](CCCCN)C(=O)N3)NC(=O)[C@H](C(C)C)NC(=O)[C@H](CC(C)C)NC(=O)[C@H](CC(N)=O)NC(=O)[C@@H]1CCCN1C(=O)[C@H](CCCNC(=N)N)NC2=O` showed an IC50 [1] of 39 nM and an IC50 [2] greater than 10000 nM.

`CC[C@H](C)[C@@H]1NC(=O)[C@@H]2CSSC[C@@H]3NC(=O)[C@H](C(C)C)NC(=O)[C@H](CC(C)C)NC(=O)[C@H](CC(N)=O)NC(=O)[C@@H]4CCCN4C(=O)[C@H](CCCNC(=N)N)NC(=O)[C@H](CSSC[C@H](NC(=O)[C@@H](N)CC(=O)O)C(=O)N[C@@H](CC(C)C)C(=O)NCC(=O)N[C@@H](C(C)C)C(=O)N[C@@H](CCSC)C(=O)N[C@@H](CCCNC(=N)N)C(=O)N[C@@H](CCCCN)C(=O)N2)NC(=O)[C@H](CSSC[C@@H](C(=O)N[C@@H](CCCCN)C(=O)N[C@@H](Cc2ccc(O)cc2)C(=O)N[C@H](C(=O)N[C@@H](Cc2ccccc2)C(N)=O)C(C)C)NC(=O)[C@H](Cc2c[nH]c4ccccc24)NC(=O)[C@H](CCCCN)NC(=O)[C@H](Cc2cnc[nH]2)NC(=O)[C@H]([C@@H](C)O)NC(=O)[C@H](CCCNC(=N)N)NC(=O)[C@H](CO)NC3=O)NC(=O)[C@H](CCCCN)NC(=O)[C@H](CC(=O)O)NC(=O)[C@H](CC(N)=O)NC(=O)[C@H](CC(=O)O)NC(=O)[C@@H]2CCCN2C1=O` (H-DCLGVMRKCIPDNDKCCRPNLVCSRTHKWCKYVF-NH2; disulfide 2-17, 9-23, 16-30) was tested, and the IC50 [1] was 19 nM and the IC50 [2] was greater than 10000 nM.

With `CC[C@H](C)[C@@H]1NC(=O)[C@@H]2CSSC[C@@H]3NC(=O)[C@H](C(C)C)NC(=O)[C@H](CC(C)C)NC(=O)[C@H](CC(N)=O)NC(=O)[C@@H]4CCCN4C(=O)[C@H](CCCNC(=N)N)NC(=O)[C@H](CSSC[C@H](NC(=O)[C@@H](N)CC(=O)O)C(=O)N[C@@H](CC(C)C)C(=O)NCC(=O)N[C@@H](Cc4ccccc4)C(=O)N[C@@H](CCSC)C(=O)N[C@@H](CCCNC(=N)N)C(=O)N[C@@H](CCCCN)C(=O)N2)NC(=O)[C@H](CSSC[C@@H](C(=O)N[C@@H](CCCCN)C(=O)N[C@@H](Cc2ccc(O)cc2)C(=O)N[C@H](C(=O)N[C@@H](Cc2ccccc2)C(N)=O)C(C)C)NC(=O)[C@H](Cc2c[nH]c4ccccc24)NC(=O)[C@H](CCCNC(=N)N)NC(=O)[C@H](Cc2cnc[nH]2)NC(=O)[C@H]([C@@H](C)O)NC(=O)[C@H](CCCNC(=N)N)NC(=O)[C@H](CO)NC3=O)NC(=O)[C@H](CCCCN)NC(=O)[C@H](CC(=O)O)NC(=O)[C@H](CC(N)=O)NC(=O)[C@H](CC(=O)O)NC(=O)[C@@H]2CCCN2C1=O` the IC50 [1] was 8 nM.

`CC[C@H](C)[C@@H]1NC(=O)[C@@H]2CSSC[C@@H]3NC(=O)[C@H](C(C)C)NC(=O)[C@H](CC(C)C)NC(=O)[C@H](CC(N)=O)NC(=O)[C@@H]4CCCN4C(=O)[C@H](CCCNC(=N)N)NC(=O)[C@H](CSSC[C@H](NC(=O)[C@@H](N)CC(=O)O)C(=O)N[C@@H](CC(C)C)C(=O)NCC(=O)N[C@@H](Cc4ccccc4)C(=O)N[C@@H](CCSC)C(=O)N[C@@H](CCCNC(=N)N)C(=O)N[C@@H](CCCCN)C(=O)N2)NC(=O)[C@H](CSSC[C@@H](C(=O)N[C@@H](CCCCN)C(=O)N[C@@H](Cc2ccc(O)cc2)C(=O)N[C@H](C(=O)N[C@@H](Cc2ccccc2)C(N)=O)C(C)C)NC(=O)[C@H](Cc2c[nH]c4ccccc24)NC(=O)[C@H](CCCCN)NC(=O)[C@H](Cc2cnc[nH]2)NC(=O)[C@H](Cc2cnc[nH]2)NC(=O)[C@H](CCCNC(=N)N)NC(=O)[C@H](CO)NC3=O)NC(=O)[C@H](CCCCN)NC(=O)[C@H](CC(=O)O)NC(=O)[C@H](CC(N)=O)NC(=O)[C@H](CC(=O)O)NC(=O)[C@@H]2CCCN2C1=O` (H-DCLGFMRKCIPDNDKCCRPNLVCSRHHKWCKYVF-NH2; disulfide 2-17, 9-23, 16-30) showed an IC50 [1] of 4 nM.

`CC[C@H](C)[C@@H]1NC(=O)[C@@H]2CSSC[C@@H]3NC(=O)[C@H](C(C)C)NC(=O)[C@H](CC(C)C)NC(=O)[C@H](CC(N)=O)NC(=O)[C@@H]4CCCN4C(=O)[C@H](CCCNC(=N)N)NC(=O)[C@H](CSSC[C@H](NC(=O)[C@@H](N)CC(=O)O)C(=O)N[C@@H](CC(C)C)C(=O)NCC(=O)N[C@@H](Cc4ccc(-c5ccccc5)cc4)C(=O)N[C@@H](CCSC)C(=O)N[C@@H](CCCNC(=N)N)C(=O)N[C@@H](CCCCN)C(=O)N2)NC(=O)[C@H](CSSC[C@@H](C(=O)N[C@@H](CCCCN)C(=O)N[C@@H](Cc2ccc(O)cc2)C(=O)N[C@H](C(=O)N[C@@H](Cc2ccccc2)C(N)=O)C(C)C)NC(=O)[C@H](Cc2c[nH]c4ccccc24)NC(=O)[C@H](CCCCN)NC(=O)[C@H](Cc2cnc[nH]2)NC(=O)[C@H]([C@@H](C)O)NC(=O)[C@H](CCCNC(=N)N)NC(=O)[C@H](CO)NC3=O)NC(=O)[C@H](CCCCN)NC(=O)[C@H](CC(=O)O)NC(=O)[C@H](CC(N)=O)NC(=O)[C@H](CC(=O)O)NC(=O)[C@@H]2CCCN2C1=O` showed an IC50 [1] of 86 nM.

Compound `CC[C@H](C)[C@@H]1NC(=O)[C@@H]2CSSC[C@@H]3NC(=O)[C@H](C(C)C)NC(=O)[C@H](CC(C)C)NC(=O)[C@H](CC(N)=O)NC(=O)[C@@H]4CCCN4C(=O)[C@H](CCCNC(=N)N)NC(=O)[C@H](CSSC[C@H](NC(=O)[C@H](CC(=O)O)NC(=O)[C@H](C)N)C(=O)N[C@@H](CC(C)C)C(=O)NCC(=O)N[C@@H](Cc4ccccc4)C(=O)N[C@@H](CCSC)C(=O)N[C@@H](CCCNC(=N)N)C(=O)N[C@@H](CCCCN)C(=O)N2)NC(=O)[C@H](CSSC[C@@H](C(=O)N[C@@H](CCCCN)C(=O)N[C@@H](Cc2ccc(O)cc2)C(=O)N[C@H](C(=O)N[C@@H](Cc2ccccc2)C(N)=O)C(C)C)NC(=O)[C@H](Cc2c[nH]c4ccccc24)NC(=O)[C@H](CCCCN)NC(=O)[C@H](Cc2cnc[nH]2)NC(=O)[C@H]([C@@H](C)O)NC(=O)[C@H](CCCNC(=N)N)NC(=O)[C@H](CO)NC3=O)NC(=O)[C@H](CCCCN)NC(=O)[C@H](CC(=O)O)NC(=O)[C@H](CC(N)=O)NC(=O)[C@H](CC(=O)O)NC(=O)[C@@H]2CCCN2C1=O` has an IC50 [2] greater than 5000 nM.
